The record followed here is patent US20110245288A1 (priority 2010, published 2011).

The conditions of series [1]: human.
For series [2] the following is noted: human. This is another data set of the same source.

As to `CO[C@]12CC[C@@]3(C[C@@H]1[C@](C)(O)C(C)(C)C)[C@H]1Cc4ccc(O)c5c4[C@@]3(CCN1CC1CC1)[C@H]2O5` [BUP, buprenorphine, reference compound], in series [1], the Cumulative permeation is on record as 6.32 ± 2.16 nmol, the Flux worked out at 0.44 ± 0.14 nmol/cm^2/h, the Lag time came to 9.2 ± 2.0 h and the “Skin Disposition” value was found to be 0.62 ± 0.34 µmol/g.
Take `CCOCCOCCOC(=O)Oc1ccc2c3c1O[C@H]1[C@@]4(OC)CC[C@@]5(C[C@@H]4[C@](C)(O)C(C)(C)C)[C@@H](C2)N(CC2CC2)CC[C@]315` [Formula I, Buprenorphine 3,6-dioxaoctyl carbonate]: in series [1], the Cumulative permeation amounted to 17.5 ± 4.0 nmol, the Flux stood at 1.24 ± 0.23 nmol/cm^2/h, the Lag time is given as 7.7 ± 1.7 h and the “Skin Disposition” value was 1.0 ± 0.4 µmol/g. Also, in series [1], the flux enhancement result was “*Formula I (3) (key: *Indicates a flux enhancement greater than 2.)” and the “fold increase in cumulative permeation as compared to BUP” value is recorded as at least 2.75 fold. For the same compound, the “Plasma hydrolysis (k)” value in series [2] is -0.113 h⁻¹.
As to `CCOCCOCCOCCOCCOC(=O)Oc1ccc2c3c1O[C@H]1[C@@]4(OC)CC[C@@]5(C[C@@H]4[C@](C)(O)C(C)(C)C)[C@@H](C2)N(CC2CC2)CC[C@]315` [Formula II, Buprenorphine 3,6,9,12-tetraoxatetradecanyl carbonate], in series [1], the Cumulative permeation turned out to be 4.5 ± 1.9 nmol, the Flux is 0.31 ± 0.26 nmol/cm^2/h, the Lag time is 7.4 ± 4.7 h and the “Skin Disposition” value stood at 4.5 ± 1.9 µmol/g. The “Plasma hydrolysis (k)” value in series [2] is -1.12 h⁻¹.
Turning to `CCOCCOCCOCCOC(=O)Oc1ccc2c3c1O[C@H]1[C@@]4(OC)CC[C@@]5(C[C@@H]4[C@](C)(O)C(C)(C)C)[C@@H](C2)N(CC2CC2)CC[C@]315` [Formula III, Buprenorphine 3,6,9-trioxaundecyl carbonate], in series [1], the Cumulative permeation is listed as 23.9 ± 6.7 nmol, the Flux was found to be 1.74 ± 0.45 nmol/cm^2/h, the Lag time was 8.7 ± 0.6 h and the “Skin Disposition” value was determined as 13.89 ± 12.21 µmol/g. Further, in series [1], the flux enhancement result is given as “*FormuIa III (4) (key: *Indicates a flux enhancement greater than 2.)” and the “fold increase in cumulative permeation as compared to BUP” value is recorded as at least 2.75 fold. In addition, the “Plasma hydrolysis (k)” value in series [2] was -0.37 h⁻¹.
